Data: patent publication US20140357706A1, “Stearate Compounds” (THE UAB RESEARCH FOUNDATION, priority 2011, published 2014)

Tests used:
lung metastatic tumors = experiment: Immunohistochemistry of lung metastatic tumors (CD31, Ki67, caspase-3), experiment 2; format: in vivo, mice
Description: Paraffin sections were prepared as described previously (21). 5 μm thick sections were cut from the formalin fixed, paraffin embedded tissue blocks and floated onto charged glass slides (Super-Frost Plus, Fisher Scientific, Pittsburgh, Pa.) and dried overnight at 60° C. A hemotoxylin and eosin stained section was obtained from each tissue block. All sections for immunohistochemistry were deparaffinized and hydrated using graded concentrations of ethanol to deionized water.
CD31 immunostaining was done as described previously^(21). Briefly, the tissue sections were subjected to pretreatment with 0.5 M tris buffer (pH 10). All sections were washed gently in deionized water, then transferred in to 0.05 M Tris-based solution in 0.15 M NaCl with 0.1% v/v Triton-X-100, pH 7.6 (TBST). Endogenous peroxidase was blocked with 3% hydrogen peroxide for 10 min. To reduce further nonspecific background staining, slides were incubated with avidin (Jackson ImmunoResearch, West Grove, Pa.) and biotin blocking solutions (Sigma, to St. Louis, Mo.) for 15 min each, and 3% normal goat serum (Sigma, St. Louis, Mo.) for 20 min. All slides were then incubated at 4° C. overnight with rabbit polyclonal antibody against CD31 (1:200 dilution) (Abeam, Cambridge, Mass.). […]
Bioquant® Image Analysis software (Rtm Biometrics, Nashville, Tenn.) was used to evaluate the immunostaining. […] The numbers of positive and negative cells in these hot spots were then counted and averaged at 5 magnification X40. The percentage of cells stained with Ki67 or caspase-3 was subsequently calculated for comparison. For CD31 immunostaining, the MVD was measured based on Weidner's method (37). […] The number of microvessels in these hot spots was counted at magnification X40, and the density was then calculated for comparison. Each positive endothelial cell cluster of immunoreactivity was counted as an individual vessel in addition to the morphologically identifiable vessels with a lumen.

[1] = system: MDA-MB-435 human breast cancer cells; experiment: MDA-MB-435 lung metastasis model, experiment 2 (diet started with chemotherapy after surgery); format: in vivo, mice
Description: 3-4 week old female athymic mice were purchased from Harlan Sprague Dawley, Inc. (Indianapolis, Ind.) and were maintained in microisolater cages in pathogen-free facilities. […] The diets were prepared by Harlan-Teklad (Madison, Wis.). The animals were fed ad libitum and the amount of food consumed was recorded. Mice were anesthetized with 3% isoflurane in 2.5% O2 and weighed weekly. All in vivo procedures were approved by the Institutional Animal Care and Use Committee (IACUC), University of Alabama at Birmingham (UAB).
MDA-MB-435 human breast cancer cells (obtained from Dr. Dan Welch; UAB) were grown and maintained in DMEM:F12 supplemented with 5% FBS, 2 mM glutamine, 1 mM sodium pyruvate, 0.2× non-essential amino acids and 1% penicillin/streptomycin (5% CO2). Cells were grown to 80-90% confluence prior to preparation for injection. To detach cells from the plates, cells were washed with PBS and then treated with 3 mM versene. […]
Lungs were placed under the dissecting microscope (Fisher Scientific, Hanover Park, Ill.) for measurement of metastatic tumor size. Tumor size is expressed as an average of the longest and shortest diameter. The tumors were split into three groups according to their sizes (<0.1 cm, small tumor; 0.1-0.2 cm, medium tumor; >0.2 cm, large tumor), and the number of tumors per mouse was counted separately.

SMILES: CC(=O)O[C@H]1C(=O)[C@@]2(C)[C@H]([C@H](OC(=O)c3ccccc3)[C@]3(O)C[C@H](OC(=O)[C@H](O)[C@@H](NC(=O)c4ccccc4)c4ccccc4)C(C)=C1C3(C)C)[C@]1(OC(C)=O)CO[C@@H]1C[C@@H]2O [paclitaxel]
- Caspase-3 positive cells (lung metastatic tumors; compared to control diet group): significantly increased
- Percentage of Ki67 positive cells (proliferation) (lung metastatic tumors; two-way ANOVA): significantly inhibited
- Microvessel density (MVD), CD31 (lung metastatic tumors; two-way ANOVA, PTX VS. no PTX, diet VS. control diet group): decreased the MVD significantly
- Incidence of lung metastases ([1]; PTX vs same diet without PTX, p<0.01, about 20 mg/kg i.p.): significantly lower
- Number of lung metastases ([1]; two-way ANOVA, PTX VS. no PTX, diet VS. control diet): significantly reduced
